# Source: ChEMBL document CHEMBL1201862, “PubChem BioAssay data set” (2004)
# Calls of active or inactive are those of the source.
# What was measured:
# [1] = Shn3 3'UTR reporter signal decrease – cell-based, Clone20 osteoblasts, firefly luciferase, cherry-pick, set 2, Schnurri-3 inhibitor project, dose response (AID 720490); type: functional;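 note: actives lower the luminescence signal as inhibitors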
# [2] = EF1alpha-driven Renilla reporter with control 3'UTR suppression – Clone20-Shn3RL cells, dual-Glo, cherry-pick, set 2, counter-screen for Shn3 3'UTR targeting project, dose response (AID 720724); type: functional, cell-based; details: Dual-Go Shn3RL
# [3] = loss of viability in HepG2 cells – cell-based, CellTiter-Glo, cherry-picked, cytotoxicity control for Shn3 inhibitor project, dose response (AID 624134); type: functional
# [4] = reduction of Shn3 3'UTR-driven luciferase in osteoblasts – cell-based, Clone20 osteoblasts, firefly luciferase, cherry-picked, dose response (AID 624132); type: functional;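 note: firefly luciferase luminescence from reporter carrying the Shn3 3'UTR in osteoblasts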
# Protein Wnt-3a = Protein Wnt-3a (Mus musculus, UniProt P27467); assay: antagonism of Wnt3a pathway luciferase reporter – Wnt-LIGHT cells, luminescence, selectivity assay for Gli-SUFU antagonist project, dose response (AID 651570); type: functional; details: read-out: IC50_Mean;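 note: Wnt-LIGHT reporter cells stimulated with conditioned medium from Wnt3a-producing cells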
# [5] = non-specific 3'UTR reporter inhibition in Clone20-Shn3RL – cell-based, Renilla luciferase, cherry-picked, counter-screen for Shn3 inhibitor project, dose response (AID 624133); type: functional
# [6] = target: T1, Histone-lysine N-methyltransferase NSD2 (Homo sapiens, UniProt O96028); type: biochemical
# T1 sequence (O96028 whole entry): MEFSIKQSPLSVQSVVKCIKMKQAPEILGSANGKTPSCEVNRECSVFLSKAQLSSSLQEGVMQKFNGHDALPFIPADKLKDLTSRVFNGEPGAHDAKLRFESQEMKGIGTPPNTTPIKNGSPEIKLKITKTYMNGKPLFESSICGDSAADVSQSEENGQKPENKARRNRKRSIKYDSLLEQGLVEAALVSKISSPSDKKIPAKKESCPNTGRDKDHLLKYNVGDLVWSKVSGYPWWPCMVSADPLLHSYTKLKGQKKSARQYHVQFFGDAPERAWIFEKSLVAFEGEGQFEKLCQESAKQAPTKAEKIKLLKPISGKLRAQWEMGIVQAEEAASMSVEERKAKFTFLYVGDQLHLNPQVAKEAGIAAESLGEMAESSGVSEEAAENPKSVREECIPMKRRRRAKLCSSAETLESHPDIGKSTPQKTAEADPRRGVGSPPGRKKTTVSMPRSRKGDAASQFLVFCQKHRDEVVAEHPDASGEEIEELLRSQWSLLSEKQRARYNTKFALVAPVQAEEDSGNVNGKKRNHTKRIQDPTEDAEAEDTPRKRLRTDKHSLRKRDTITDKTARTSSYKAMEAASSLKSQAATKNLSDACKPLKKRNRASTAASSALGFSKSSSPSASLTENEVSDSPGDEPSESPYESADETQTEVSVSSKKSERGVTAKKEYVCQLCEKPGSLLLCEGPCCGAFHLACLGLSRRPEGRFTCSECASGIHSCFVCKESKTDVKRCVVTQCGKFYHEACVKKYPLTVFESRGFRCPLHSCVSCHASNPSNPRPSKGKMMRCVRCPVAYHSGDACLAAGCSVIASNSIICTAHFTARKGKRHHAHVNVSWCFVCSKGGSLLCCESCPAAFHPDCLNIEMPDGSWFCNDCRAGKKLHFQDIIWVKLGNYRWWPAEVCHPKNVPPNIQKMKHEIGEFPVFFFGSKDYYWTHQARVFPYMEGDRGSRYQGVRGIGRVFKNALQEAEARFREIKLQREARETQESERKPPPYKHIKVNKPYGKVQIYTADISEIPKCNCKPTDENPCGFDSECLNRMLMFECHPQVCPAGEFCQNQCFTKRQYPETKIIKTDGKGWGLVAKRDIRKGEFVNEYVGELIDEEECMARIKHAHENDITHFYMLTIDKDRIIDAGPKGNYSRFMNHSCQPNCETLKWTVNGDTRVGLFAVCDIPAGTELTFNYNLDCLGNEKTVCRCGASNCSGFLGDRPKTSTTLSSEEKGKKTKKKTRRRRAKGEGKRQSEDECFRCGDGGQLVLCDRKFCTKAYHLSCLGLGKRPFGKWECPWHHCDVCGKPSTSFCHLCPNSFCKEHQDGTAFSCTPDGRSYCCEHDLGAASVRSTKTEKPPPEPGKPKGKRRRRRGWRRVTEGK
# [7] = target: Dual specificity tyrosine-phosphorylation-regulated kinase 1A (Rattus norvegicus, UniProt Q63470); type: biochemical, Homo sapiens
# [8] = Counterscreen for activators of the function of SWI/SNF related, matrix associated, actin dependent regulator of chromatin, subfamily a, member 2 (SMARCA2, BRM): Luminescence-based cell-based high throughput dose response assay to identify non-selective compounds using the VP16 reporter assay.; type: functional
# [9] = target: Tyrosyl-DNA phosphodiesterase 2 (Homo sapiens, UniProt O95551); assay: potency against TDP2 phosphodiesterase activity – biochemical, epi absorbance, IC50, dose response (AID 743297)
# [10] = target: T2, Rac GTPase-activating protein 1 (Homo sapiens, UniProt Q9H0H5); assay: blockers of MgcRacGAP-driven Rac1 GTP hydrolysis – biochemical, ADP Hunter fluorescence, primary and confirmatory, confirmation (AID 624330); type: functional
# T2 sequence (Q9H0H5 whole entry): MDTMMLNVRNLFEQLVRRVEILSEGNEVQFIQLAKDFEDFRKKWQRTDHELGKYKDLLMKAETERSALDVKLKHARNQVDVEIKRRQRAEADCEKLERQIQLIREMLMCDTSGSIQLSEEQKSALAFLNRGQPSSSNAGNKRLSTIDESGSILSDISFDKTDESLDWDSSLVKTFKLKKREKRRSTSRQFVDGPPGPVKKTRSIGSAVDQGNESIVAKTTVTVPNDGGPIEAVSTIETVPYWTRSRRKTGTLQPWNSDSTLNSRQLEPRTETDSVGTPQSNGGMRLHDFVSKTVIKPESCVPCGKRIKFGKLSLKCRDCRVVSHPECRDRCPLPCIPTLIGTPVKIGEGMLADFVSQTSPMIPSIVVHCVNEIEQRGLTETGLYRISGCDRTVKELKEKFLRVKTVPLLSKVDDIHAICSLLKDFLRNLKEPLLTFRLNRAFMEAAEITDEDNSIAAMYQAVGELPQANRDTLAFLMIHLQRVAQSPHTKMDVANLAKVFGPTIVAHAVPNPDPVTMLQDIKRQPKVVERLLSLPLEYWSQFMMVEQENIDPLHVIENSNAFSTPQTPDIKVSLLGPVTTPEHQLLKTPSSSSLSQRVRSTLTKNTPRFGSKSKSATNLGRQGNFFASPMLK
# HeLa = assay: viability loss in HeLa cells – cell-based, 24 h, cherry-picked samples, cytotoxicity control, dose response (AID 504726); type: functional; details: Homo sapiens;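 note: potency for cytotoxicity as loss of luminescence signal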
# [11] = target: SWI/SNF-related matrix-associated actin-dependent regulator of chromatin subfamily A member 2 (Homo sapiens, UniProt P51531); assay: Luminescence-based cell-based high throughput dose response assay to identify activators of the function of SWI/SNF related, matrix associated, actin dependent regulator of chromatin, subfamily a, member 2 (SMARCA2, BRM).; type: functional
# ORF 73 = ORF 73 (Human herpesvirus 8, UniProt O40947); assay: KSHV LANA DNA-binding disruption – biochemical, fluorescence polarization, cherry-picked samples, dose response (AID 504725); parameters: species or system Human gammaherpesvirus 8;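 note: fluorescence polarization of a labeled DNA duplex reporting LANA DNA binding; potency is for inhibitors that block LANA binding to the DNA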
# [12] = viability loss in HeLa cells – cytotoxicity control for MgcRacGAP inhibitor project, dose response (AID 624300); type: functional
# [13] = viability of uninfected HEp-2 cells – cell-based, HTS, cytotoxicity control for RSV inhibitor project, dose response (AID 2410); type: functional; details: human respiratory syncytial virus
# [14] = tested on: Streptococcus sp. 'group A'; assay: Streptococcus pyogenes SK(-)GAS viability under kanamycin – luminescence, BacTiterGlo, confirmation, counter-screen for streptokinase expression inhibitor project, dose response (AID 1900); type: functional, organism-based
# Streptokinase A = target: T3, Streptokinase A (Streptococcus pyogenes serotype M1, UniProt P10520); assay: viability-normalized secreted streptokinase activity reduction – plasminogen activation absorbance, OD405, dose response (AID 1914); type: functional, Streptococcus pyogenes M1 GAS;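 note: secreted streptokinase activity via plasminogen activation per viability signal from cell pellet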
# T3 sequence (P10520 whole entry): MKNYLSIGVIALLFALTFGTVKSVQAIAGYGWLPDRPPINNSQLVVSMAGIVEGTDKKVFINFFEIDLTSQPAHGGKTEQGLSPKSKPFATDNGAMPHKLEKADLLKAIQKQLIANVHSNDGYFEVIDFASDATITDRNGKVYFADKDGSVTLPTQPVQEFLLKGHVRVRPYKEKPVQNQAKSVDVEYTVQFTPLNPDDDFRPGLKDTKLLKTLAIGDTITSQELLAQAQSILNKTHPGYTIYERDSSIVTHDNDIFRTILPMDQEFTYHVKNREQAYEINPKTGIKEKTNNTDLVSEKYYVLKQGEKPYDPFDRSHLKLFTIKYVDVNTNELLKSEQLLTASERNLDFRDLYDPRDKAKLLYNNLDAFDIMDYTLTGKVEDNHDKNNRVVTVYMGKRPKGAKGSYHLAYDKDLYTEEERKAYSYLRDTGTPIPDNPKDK
# Major prion protein = Major prion protein (Homo sapiens, UniProt P04156); type: functional, cell-based
# [15] = target: T4, Calpain-2 catalytic subunit (Sus scrofa, UniProt P43367); assay: m-calpain protease blockers, concentration series – biochemical, fluorogenic peptide substrate, dose response (AID 1420); type: functional
# T4 sequence (P43367 whole entry): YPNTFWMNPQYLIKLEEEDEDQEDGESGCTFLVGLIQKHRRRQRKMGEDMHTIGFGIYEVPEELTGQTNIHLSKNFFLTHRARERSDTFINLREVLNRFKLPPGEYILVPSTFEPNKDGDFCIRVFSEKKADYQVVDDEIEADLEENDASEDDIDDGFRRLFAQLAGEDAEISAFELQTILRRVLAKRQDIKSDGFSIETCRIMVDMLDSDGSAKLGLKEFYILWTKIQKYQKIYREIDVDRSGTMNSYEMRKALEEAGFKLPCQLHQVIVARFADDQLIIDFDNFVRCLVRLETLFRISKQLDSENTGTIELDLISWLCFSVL
# Streptococcus = assay: GAS UMAA2166 growth inhibition – luminescence, BacTiterGlo, counter-screen for streptokinase expression inhibitor project, dose response (AID 1915); type: functional, organism-based;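 note: potency for reduction of bacterial viability or growth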
# [16] = PAX5 cellular inhibition readout – cell-based, plate reader, dry powder samples, selectivity assay for PAX8 inhibitor project, dose response (AID 743047); type: functional;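 note: HEK293 cells carrying a Pax5 driven CD19 promoter luciferase reporter; potency of inhibitors that lower reporter luminescence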
# [17] = inhibitors acting on PAX2 in cells – cell-based, plate reader, dry powder samples, selectivity assay for PAX8 inhibitor project, dose response (AID 743048); type: functional;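 note: HEK293 cells carrying a WT1 promoter luciferase reporter driven by expressed Pax2; potency is for inhibition of Pax2 driven reporter signal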
# [18] = OV-90 cell viability loss – plate reader, dry powder, SA8, PAX8 inhibitor project, dose response (AID 743149); type: functional, cell-based
# [19] = target: Protein disulfide-isomerase (Homo sapiens, UniProt P07237); assay: inhibition of PDI-mediated insulin reduction – biochemical, turbidity, dry powder samples, set 2, confirmation (AID 652146)
# [20] = MITF: Counter assay: A375 proliferation Measured in Cell-Based System Using Plate Reader - 2084-03_Inhibitor_Dose_DryPowder_Activity_Set8.; type: functional; details: A-375
# [21] = MITF Orthogonal Assay: SK-MEL-5 CTG Assay Measured in Cell-Based System Using Plate Reader - 2084-02_Inhibitor_Dose_DryPowder_Activity_Set7.; type: functional
compound,measurement,setting,value
CC(Sc1nc2ccccc2c(=O)n1C)C(=O)N(C)C1CCCCC1 (stereo not drawn),AC50,[1],2.03 µM (active)
same,AC50,[2],49.9 µM (active)
same,AC50,[3],38.2 µM (active)
same,AC50,[4],2.27 µM (active)
same,IC50,Protein Wnt-3a,1.92 µM (active)
same,AC50,[5],13.7 µM (active)
CCN(CC)CCCNc1ccc2ncn3c4ccc(O)cc4c(=O)c1c23,AC50,[6],12.7 µM (active)
same,AC50,[7],2.77 µM (active)
same,EC50,[8],> 91.2 µM (inactive)
same,IC50,[9],> 128 µM (inactive)
same,IC50,[10],56.4 µM (active)
same,AC50,HeLa,> 350 µM (inactive)
same,EC50,[11],20.5 µM (inactive)
same,AC50,ORF 73,2.05 µM (active)
same,CC50,[12],89.3 µM (active)
Cc1nc(-c2ccc(S(=O)(=O)Nc3ccc(Br)cc3Cl)s2)cs1,CC50,[13],16.6 µM (active)
same,EC50,[14],3.04 µM (active)
same,IC50,cells,> 138 µM (inactive)
same,EC50,Streptokinase A,3.98 µM (active)
same,IC50,Major prion protein,12.5 µM (inactive)
same,IC50,[15],12.2 µM (active)
same,EC50,Streptococcus,11.9 µM (active)
COc1cccc(C#Cc2ccc([C@@H]3[C@@H](C#N)N(C(=O)C4CCCC4)[C@@H]3CO)cc2)c1,AC50,[16],30.7 µM (active)
same,AC50,[17],31.6 µM (active)
same,AC50,[18],> 70 µM (inactive)
C=CCOc1ccc(CN2CCC(CCOc3ccccc3)(C(=O)O)CC2)cc1Cl,AC50,[19],20 µM (active)
Cc1ccc(NC2=CC(=O)c3ccccc3C2=O)cc1C,AC50,[20],> 70 µM (inactive)
same,AC50,[21],0.904 µM (active)
